Data reported in ChEMBL document CHEMBL1201862, “PubChem BioAssay data set” (2004).
Calls of active or inactive are those of the source.

Assays:
cells = type: functional, cell-based
Exodeoxyribonuclease V = target: T1, Exodeoxyribonuclease V (Escherichia coli (strain K12), UniProt P04993+P07648+P08394); assay: RecBCD inhibition via phage-restricted bacterial growth – absorbance, V66 E. coli, mutant T4 phage, counter-screen for AddAB inhibitor project, dose response (AID 492957); type: functional, cell-based, Escherichia coli str. K-12 substr. MG1655
T1 sequence (P04993 whole entry): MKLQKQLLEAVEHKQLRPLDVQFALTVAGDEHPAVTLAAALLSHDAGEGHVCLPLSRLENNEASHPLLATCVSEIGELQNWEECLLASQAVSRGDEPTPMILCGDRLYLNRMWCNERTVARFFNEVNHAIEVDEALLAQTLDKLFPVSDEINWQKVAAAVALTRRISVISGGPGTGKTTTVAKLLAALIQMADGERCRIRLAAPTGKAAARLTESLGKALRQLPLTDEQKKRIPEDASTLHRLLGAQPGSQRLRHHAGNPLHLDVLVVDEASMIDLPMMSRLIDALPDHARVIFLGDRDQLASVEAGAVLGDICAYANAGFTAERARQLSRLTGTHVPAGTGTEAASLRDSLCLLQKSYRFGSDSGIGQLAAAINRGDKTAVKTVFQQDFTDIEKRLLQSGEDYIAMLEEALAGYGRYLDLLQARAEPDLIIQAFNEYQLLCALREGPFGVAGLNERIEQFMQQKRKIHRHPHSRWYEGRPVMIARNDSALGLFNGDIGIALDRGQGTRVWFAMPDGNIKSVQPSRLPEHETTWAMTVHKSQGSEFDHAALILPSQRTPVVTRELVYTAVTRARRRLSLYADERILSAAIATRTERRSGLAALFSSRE
T1 sequence (P07648 whole entry): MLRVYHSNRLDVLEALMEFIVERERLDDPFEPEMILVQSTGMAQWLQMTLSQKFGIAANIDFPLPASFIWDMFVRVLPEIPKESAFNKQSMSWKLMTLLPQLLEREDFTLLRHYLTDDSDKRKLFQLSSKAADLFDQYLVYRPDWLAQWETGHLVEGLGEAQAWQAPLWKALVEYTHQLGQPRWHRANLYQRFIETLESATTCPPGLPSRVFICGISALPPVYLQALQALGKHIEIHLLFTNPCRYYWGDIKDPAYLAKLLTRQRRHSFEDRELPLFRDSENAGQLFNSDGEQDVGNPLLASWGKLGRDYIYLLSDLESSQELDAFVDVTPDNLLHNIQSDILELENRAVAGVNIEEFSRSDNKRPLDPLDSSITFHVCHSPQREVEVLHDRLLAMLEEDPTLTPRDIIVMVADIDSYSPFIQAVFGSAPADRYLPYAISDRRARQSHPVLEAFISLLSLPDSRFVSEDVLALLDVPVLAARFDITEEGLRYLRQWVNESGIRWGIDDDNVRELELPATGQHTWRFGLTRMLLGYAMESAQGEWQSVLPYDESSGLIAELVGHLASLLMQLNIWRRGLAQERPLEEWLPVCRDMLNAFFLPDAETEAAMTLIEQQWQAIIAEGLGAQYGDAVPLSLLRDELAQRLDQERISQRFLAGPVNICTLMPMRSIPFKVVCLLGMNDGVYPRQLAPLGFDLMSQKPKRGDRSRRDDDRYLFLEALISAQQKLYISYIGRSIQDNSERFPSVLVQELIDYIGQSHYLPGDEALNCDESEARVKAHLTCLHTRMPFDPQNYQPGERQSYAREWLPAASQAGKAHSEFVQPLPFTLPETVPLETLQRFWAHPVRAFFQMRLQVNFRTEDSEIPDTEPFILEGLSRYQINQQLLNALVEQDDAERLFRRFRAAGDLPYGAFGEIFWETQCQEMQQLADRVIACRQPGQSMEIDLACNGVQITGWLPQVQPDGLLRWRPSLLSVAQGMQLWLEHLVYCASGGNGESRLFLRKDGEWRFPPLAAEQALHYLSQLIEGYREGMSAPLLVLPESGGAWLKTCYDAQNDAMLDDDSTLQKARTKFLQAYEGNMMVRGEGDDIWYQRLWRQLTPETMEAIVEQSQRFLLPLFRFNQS
T1 sequence (P08394 whole entry): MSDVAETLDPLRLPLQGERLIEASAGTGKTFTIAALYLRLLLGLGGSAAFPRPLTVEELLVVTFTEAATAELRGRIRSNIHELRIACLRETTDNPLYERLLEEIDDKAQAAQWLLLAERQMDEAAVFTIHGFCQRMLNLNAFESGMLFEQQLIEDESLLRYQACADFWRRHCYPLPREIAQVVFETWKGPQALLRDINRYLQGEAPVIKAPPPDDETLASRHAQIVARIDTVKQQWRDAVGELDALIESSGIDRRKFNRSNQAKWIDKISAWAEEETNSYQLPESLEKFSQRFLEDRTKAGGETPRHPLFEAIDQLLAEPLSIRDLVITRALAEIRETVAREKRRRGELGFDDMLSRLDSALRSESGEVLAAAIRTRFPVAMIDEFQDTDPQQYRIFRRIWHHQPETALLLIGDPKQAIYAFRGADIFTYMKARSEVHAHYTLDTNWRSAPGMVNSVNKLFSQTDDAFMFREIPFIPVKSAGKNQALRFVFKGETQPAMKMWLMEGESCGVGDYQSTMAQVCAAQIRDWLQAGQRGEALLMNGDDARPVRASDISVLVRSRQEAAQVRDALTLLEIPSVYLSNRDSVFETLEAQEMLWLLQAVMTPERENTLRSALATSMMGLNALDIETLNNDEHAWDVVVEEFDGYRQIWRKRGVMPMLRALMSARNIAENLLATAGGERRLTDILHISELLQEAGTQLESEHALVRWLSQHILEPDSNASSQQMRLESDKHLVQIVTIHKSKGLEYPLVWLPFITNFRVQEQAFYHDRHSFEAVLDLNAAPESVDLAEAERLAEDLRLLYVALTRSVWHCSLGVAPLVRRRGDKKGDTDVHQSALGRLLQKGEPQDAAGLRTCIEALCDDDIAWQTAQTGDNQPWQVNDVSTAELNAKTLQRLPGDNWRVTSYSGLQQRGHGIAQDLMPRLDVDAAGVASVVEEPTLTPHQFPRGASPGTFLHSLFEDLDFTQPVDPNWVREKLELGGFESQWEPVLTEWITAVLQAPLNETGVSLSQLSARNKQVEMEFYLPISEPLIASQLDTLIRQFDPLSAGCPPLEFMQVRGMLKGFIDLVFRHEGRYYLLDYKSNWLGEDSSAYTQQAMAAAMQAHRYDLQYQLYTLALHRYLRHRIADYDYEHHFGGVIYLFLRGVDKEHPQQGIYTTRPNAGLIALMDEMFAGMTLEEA

[1] = target: Fibroblast growth factor receptor 1 (Homo sapiens, UniProt P11362); type: functional
[2] = target: Tyrosine-protein kinase BTK (Homo sapiens, UniProt Q06187); type: functional
[3] = target: Tyrosine-protein kinase Lck (Homo sapiens, UniProt P06239); type: functional;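 note: lck was assayed as one member of a kinase panel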
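Throughout, for EC50: proteasome chymotrypsin-like activity measured in U2OS cells; potency is for inhibition of proteasome activity.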

Sequence of Fibroblast growth factor receptor 1 (P11362 whole entry): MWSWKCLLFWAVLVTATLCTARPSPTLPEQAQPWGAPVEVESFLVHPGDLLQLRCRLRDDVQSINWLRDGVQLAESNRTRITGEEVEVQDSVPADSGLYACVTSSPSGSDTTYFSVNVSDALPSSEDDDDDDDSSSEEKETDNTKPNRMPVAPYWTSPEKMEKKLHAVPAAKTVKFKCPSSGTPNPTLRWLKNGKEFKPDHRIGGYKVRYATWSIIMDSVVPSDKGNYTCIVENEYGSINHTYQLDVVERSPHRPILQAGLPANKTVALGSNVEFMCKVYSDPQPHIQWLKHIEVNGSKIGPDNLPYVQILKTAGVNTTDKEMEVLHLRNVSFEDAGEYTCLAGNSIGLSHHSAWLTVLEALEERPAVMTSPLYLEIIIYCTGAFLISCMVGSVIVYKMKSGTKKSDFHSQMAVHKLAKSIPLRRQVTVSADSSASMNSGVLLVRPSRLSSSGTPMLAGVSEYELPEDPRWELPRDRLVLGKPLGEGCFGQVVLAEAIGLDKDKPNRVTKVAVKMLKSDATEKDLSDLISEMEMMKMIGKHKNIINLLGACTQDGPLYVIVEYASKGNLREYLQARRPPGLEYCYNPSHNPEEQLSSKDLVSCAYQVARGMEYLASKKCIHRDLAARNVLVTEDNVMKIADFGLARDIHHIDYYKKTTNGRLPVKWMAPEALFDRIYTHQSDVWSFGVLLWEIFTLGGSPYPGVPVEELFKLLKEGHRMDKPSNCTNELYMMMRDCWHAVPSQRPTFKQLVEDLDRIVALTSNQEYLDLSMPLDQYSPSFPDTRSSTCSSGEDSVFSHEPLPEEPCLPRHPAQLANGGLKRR
Sequence of Tyrosine-protein kinase BTK (Q06187 whole entry): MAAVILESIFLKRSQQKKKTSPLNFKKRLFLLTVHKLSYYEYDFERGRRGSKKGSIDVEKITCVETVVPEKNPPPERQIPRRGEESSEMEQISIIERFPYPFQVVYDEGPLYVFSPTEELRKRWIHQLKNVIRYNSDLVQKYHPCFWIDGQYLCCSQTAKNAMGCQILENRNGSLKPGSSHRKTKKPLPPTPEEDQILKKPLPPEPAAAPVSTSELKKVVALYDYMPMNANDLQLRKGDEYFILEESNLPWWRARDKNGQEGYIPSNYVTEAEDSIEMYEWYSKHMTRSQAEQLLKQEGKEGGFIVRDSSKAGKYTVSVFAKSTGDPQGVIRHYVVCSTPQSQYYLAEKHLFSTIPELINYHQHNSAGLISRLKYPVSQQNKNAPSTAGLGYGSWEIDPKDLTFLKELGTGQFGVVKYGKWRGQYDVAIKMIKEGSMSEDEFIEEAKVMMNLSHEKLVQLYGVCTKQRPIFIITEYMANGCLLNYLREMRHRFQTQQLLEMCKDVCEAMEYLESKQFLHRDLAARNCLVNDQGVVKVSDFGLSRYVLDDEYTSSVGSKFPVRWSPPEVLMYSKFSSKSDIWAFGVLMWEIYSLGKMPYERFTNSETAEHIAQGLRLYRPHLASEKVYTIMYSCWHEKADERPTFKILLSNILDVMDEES
Sequence of Tyrosine-protein kinase Lck (P06239 whole entry): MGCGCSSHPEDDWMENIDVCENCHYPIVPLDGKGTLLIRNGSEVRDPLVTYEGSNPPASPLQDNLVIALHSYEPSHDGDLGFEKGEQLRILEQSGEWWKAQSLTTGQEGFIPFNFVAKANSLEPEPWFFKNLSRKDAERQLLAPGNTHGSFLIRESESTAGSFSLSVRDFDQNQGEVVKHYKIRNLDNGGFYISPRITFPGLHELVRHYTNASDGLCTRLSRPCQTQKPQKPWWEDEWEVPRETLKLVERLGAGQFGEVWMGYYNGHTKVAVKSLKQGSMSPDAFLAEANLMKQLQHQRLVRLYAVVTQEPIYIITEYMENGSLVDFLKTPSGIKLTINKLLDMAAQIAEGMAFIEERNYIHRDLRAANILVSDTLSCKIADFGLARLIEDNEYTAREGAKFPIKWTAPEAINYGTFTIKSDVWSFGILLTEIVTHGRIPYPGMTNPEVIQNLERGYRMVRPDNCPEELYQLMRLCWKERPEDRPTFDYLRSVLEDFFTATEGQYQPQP

Row | Ki [1] | Ki [2] | Ki [3] | Structure (SMILES) | EC50 (cells) | IC50 (Exodeoxyribonuclease V)
1 |  |  |  | CCCC(=O)NC(c1ccc(N(C)C)cc1)c1ccc2cccnc2c1O (stereo not given) | > 350 µM (not active) | > 119 µM (inactive)
2 | > 2.51 µM (inactive) | > 6.31 µM (inactive) | > 6.31 µM (inactive) | O=C1NC(=O)C(c2c[nH]c3ccccc23)=C1c1nc(N2CCNCC2)nc2ccccc12 |  | 
